Consider seven molecules from patent US10584159B2, “Renilla based biosensors for monitoring biomolecule localization and trafficking in cells” (The Royal Institution for the Advancement of …, priority 2014, dated 2020).

For assay [1], the target named is T1, AT1R (Homo sapiens, UniProt P30556).
T1 construct: expressed in transfected cells; host or cells: HEK293SL
T1 sequence (P30556 1-359): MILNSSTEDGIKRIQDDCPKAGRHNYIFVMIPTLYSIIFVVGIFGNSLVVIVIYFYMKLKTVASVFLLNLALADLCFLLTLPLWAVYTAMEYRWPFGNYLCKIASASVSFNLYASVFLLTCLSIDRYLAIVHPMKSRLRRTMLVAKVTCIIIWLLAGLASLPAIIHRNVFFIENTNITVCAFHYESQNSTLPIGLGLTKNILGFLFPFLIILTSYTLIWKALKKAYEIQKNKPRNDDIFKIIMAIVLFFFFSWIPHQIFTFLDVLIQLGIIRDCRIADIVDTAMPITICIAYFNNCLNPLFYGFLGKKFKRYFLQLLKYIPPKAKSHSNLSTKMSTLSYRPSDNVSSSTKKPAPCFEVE
The experiment in a line: PKN-based RhoA activation BRET assay (PKN-crib-RlucII/rGFP-CAAX) with AT1R. In kind it is cell-based. The note with it: 100 nM Ubo-Qic 30 min, ligand 4 min. Here is the method: (§1) BRET measurements for FIGS. 1B to 9D, 25D to 25F. The following day of transfection, cells were detached and replated onto poly-ornithine coated white 96-well plate at a density of 25,000 cells per well. The next day, cells were washed once with pre-warmed Tyrode's buffer (140 mM NaCl, 2.7 mM KCl, 1 mM CaCl2, 12 mM NaHCO3, 5.6 mM D-glucose, 0.5 mM MgCl2, 0.37 mM NaH2PO4, 25 mM HEPES, pH 7.4), and then stimulated with either various concentrations of ligands in Tyrode's buffer for the indicated time, or single concentration of ligands for various times at 37° C. For recycling experiment, after stimulating the cells with the ligands for 30 min at 37° C., they were washed either three times with ice-cold Tyrode's buffer or once with Tyrode's buffer/three times with acid (50 mM sodium citrate, pH 4.0)/two times with Tyrode's buffer. All the washing steps were performed on ice. […] The cell-permeable substrate, coelenterazine 400a was added at a final concentration of 5 μM in Tyrode's buffer 3-4 min before BRET measurements. […] The BRET signal was determined by calculating the ratio of the light intensity emitted by the GFP10 or rGFP over the light intensity emitted by the RlucII. All the BRET measurements were performed in triplicate at 37° C.
PKN-based RhoA activation assay. For FIGS. 25B-D, HEK293SL cells were grown in DMEM supplemented with 6% fetal bovine serum (FBS) and 20 μg/ml gentamycin, at 37° C. Cells were seeded at a density of 7.5×10^5 cells per 100 mm dishes and were transiently transfected the next day with constructs encoding AT1R (3 μg) along with PKN-crib-RlucII (90 ng) and rGFP-CAAX (480 ng) using calcium phosphate method as described previously. After 24 h, cells were detached and seeded onto poly-ornithine-coated 96-well white plates at a density of 25 000 cells per well in media. The next day, cells were washed once with Tyrode's buffer and left in 80 μl of Tyrode's buffer at 37° C. When indicated, cells were treated with Ubo-Qic 100 nM for 30 min or C3 toxin for 3 μg/ml (in FIG. 25I), 4 hours at 37° C. Cell stimulation and BRET measurements were done at RT. BRET signals were monitored by addition of Coel-400a to a final concentration of 5 μM using a Synergy2 (BioTek®) microplate reader. […] For FIG. 25B, a transfection mix of 200 ng of TPαR, 20 ng PKN-RlucII, 600 ng CAAX-rGFP, complemented to 2 μg with ssDNA and PEI at a ratio of PEI:DNA of 3:1, is added to 3 ml of Hek293SL (350 000 cells/ml). Cells were seeded on poly-D-lysine pretreated plates. […] Cells were stimulated for 2 min with the indicated doses of U46619. […] For FIGS. 25I and J, a transfection mix of 200 ng of TPαR, 20 ng PKN-RlucII, 600 ng CAAX-rGFP, complemented to 2 μg with ssDNA and PEI at a ratio of PEI:DNA of 3:1, is added to 3 ml of Hek293SL (350,000 cells/ml). Cells were seeded on poly-D-lysine pretreated plates. 24 h post-transfection, the Rho inhibitor (CT04; Cytoskeleton, Inc) was added when indicated, overnight at final concentration 2 μg/ml. 48 h post-transfection, cells were washed and preincubated in Tyrode +1 mM CaCl2 at 37° C. for 60 min then treated, as indicated, with 100 nM of U46619 or 1 μg/ml of Rho activator II (CN03; Cytoskeleton, Inc) for 1 min at 37° C. […] BRET was measured at 37° C., using a Tristar Microplate Reader (Berthold Technologies).
For orientation: In BRET a luciferase serves as donor, and the signal depends on an acceptor being close.

For assay [2], the target named is T2, AT1R (Homo sapiens, UniProt P30556).
T2 sequence (P30556 with tags, fused parts or gaps): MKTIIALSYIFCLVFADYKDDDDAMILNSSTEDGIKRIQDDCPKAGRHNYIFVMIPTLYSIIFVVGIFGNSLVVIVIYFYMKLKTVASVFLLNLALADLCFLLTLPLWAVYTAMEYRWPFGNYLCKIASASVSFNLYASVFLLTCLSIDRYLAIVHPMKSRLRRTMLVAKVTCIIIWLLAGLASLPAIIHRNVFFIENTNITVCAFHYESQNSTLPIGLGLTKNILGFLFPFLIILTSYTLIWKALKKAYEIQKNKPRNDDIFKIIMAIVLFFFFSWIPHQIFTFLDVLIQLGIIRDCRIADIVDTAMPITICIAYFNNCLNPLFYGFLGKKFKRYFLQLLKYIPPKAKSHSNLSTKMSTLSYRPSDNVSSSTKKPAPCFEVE
The experiment in a line: AT1R sorting to rab4 vesicles BRET (AT1R-RlucII/rGFP-rab4). Type of assay: cell-based. The arrangement: expressed in transfected cells; host or cells: HEK293SL (HEK293 for the screen). Particulars: 100 nM AngII, 100 nM SI, 1 μM DVG. As for the experimental part:
as §1

The target in assay [3] is T2, AT1R. The experiment in a line: AT1R trafficking to endosomes BRET (AT1R-RlucII/rGFP-endofinFYVE). The arrangement: expressed in transfected cells; host or cells: HEK293SL (HEK293 for the screen). In kind it is cell-based. Here is the method: as §1
(§2) Data Analysis. Estimation of the t1/2 and the EC50 values for ligand-mediated endocytosis were calculated using the GraphPad® Prism curve fitting program The curves presented throughout this study, representing the best fits, and were generated using this GraphPad® Prism program as well.

The target of assay [4] is T1, AT1R. In words: β-arrestin2 targeting to endosomes BRET (AT1R/βarr2-RlucII/rGFP-endofinFYVE). Type of assay: cell-based. Here is the method:
BRET measurements for FIGS. 1B to 9D, 25D to 25F. The following day of transfection, cells were detached and replated onto poly-ornithine coated white 96-well plate at a density of 25,000 cells per well. The next day, cells were washed once with pre-warmed Tyrode's buffer (140 mM NaCl, 2.7 mM KCl, 1 mM CaCl2, 12 mM NaHCO3, 5.6 mM D-glucose, 0.5 mM MgCl2, 0.37 mM NaH2PO4, 25 mM HEPES, pH 7.4), and then stimulated with either various concentrations of ligands in Tyrode's buffer for the indicated time, or single concentration of ligands for various times at 37° C. For recycling experiment, after stimulating the cells with the ligands for 30 min at 37° C., they were washed either three times with ice-cold Tyrode's buffer or once with Tyrode's buffer/three times with acid (50 mM sodium citrate, pH 4.0)/two times with Tyrode's buffer. All the washing steps were performed on ice. Cells were then further incubated with Tyrode's buffer at 37° C. in a water bath for 45 min. The cell-permeable substrate, coelenterazine 400a was added at a final concentration of 5 μM in Tyrode's buffer 3-4 min before BRET measurements. Measurements were performed by using Synergy2 (BioTek®) microplate reader with a filter set of 410±80 nm and 515±30 nm for detecting the RlucII Renilla luciferase (donor) and GFP10 or rGFP (acceptor) light emissions, respectively. The BRET signal was determined by calculating the ratio of the light intensity emitted by the GFP10 or rGFP over the light intensity emitted by the RlucII. All the BRET measurements were performed in triplicate at 37° C.

For assay [5], the target named is T2, AT1R. In words: AT1R endocytosis BRET at plasma membrane (AT1R-RlucII/lyn-rGFP). Type of assay: cell-based. The arrangement: signal peptide-Flag-human AT1R (spFlag-AT1R); signal peptide (N); expressed in transfected cells; host or cells: HEK293SL (HEK293 for the screen). Particulars: 0.45 M sucrose 20 min. As for the experimental part:
as §1, §2

In assay [6] the test system is V2R mutants (Y128S and W164S). The experiment in a line: BRET pharmacological chaperone rescue assay (rGFP-CAAX), V2R mutants. Type of assay: cell-based, human. Particulars: 10 μM, 16 h, BRET1. As for the experimental part:
BRET assay for evaluation of PC rescue of cell surface expression and functionality (sequestration assay). In FIGS. 12A to 18E, Hek293 cells were transiently transfected using PEI as described in this section. The DNA transfected per well of a 96-well plate is as follow: in FIGS. 12A and 12B, with 2.4 ng of hMC4R-RlucII encoding construct and an increasing quantity of rGFP-CAAX (Kras) up to 9.6 ng for FIGS. 12A and for 12B, rGFP-PB up to 9.6 ng; in FIGS. 13A to 13C with 0.6, 1.2 or 2.4 ng of hMC4R-RlucII and 4.8 ng of rGFP-CAAX (Kras); in FIG. 13D with 2.4 ng of polycistronic rGFP-CAAX(Kras)/MC4R-RlucII construct; in FIG. 13E with 1.2 ng of hV2R-RlucII and 4.8 ng of rGFP-CAAX (Kras); in FIGS. 14A to 16B with 2.4 ng of hMC4R-RlucII and 7.2 ng of rGFP-CAAX (Kras); Hek293 cells stably expressing rGFP-CAAX(Kras) were transfected with 0.6, 1.2 or 2.4 ng of hMC4R-RlucII; in FIG. 17A or 0.6, 1.2 or 2.4 ng of hV2R_Y128S-RlucII; in FIG. 17B; in FIGS. 18A and 18B with 0.6, 1.2 or 2.4 ng of hERG-RlucII and 4.8 ng of rGFP-CAAX (Kras); and in FIGS. 18C-18E with 0.6 ng of hERG-RlucII and 7.2 ng of rGFP-CAAX (Kras). […] For the BRET assay, cells were washed once with PBS and left in Tyrode's buffer. […] BRET values were determined by calculating the ratio of the light emitted by the acceptor over the light emitted by the RlucII.

In the case of `CNCC(=O)N[C@@H](CCCN=C(N)N)C(=O)N[C@H](C(=O)N[C@@H](Cc1ccc(O)cc1)C(=O)N[C@H](C(=O)N[C@@H](Cc1cnc[nH]1)C(=O)N1CCC[C@H]1C(=O)N[C@@H](C)C(=O)O)C(C)C)C(C)C` [Saralasin], the “impact of Gq inhibition on ligand-mediated Rho activation” value (“impact of Gq inhibition” below) in assay [1] was “did not affect”.

With `CC[C@H](C)[C@H](NC(=O)[C@@H]1CCCN1C(=O)[C@H](Cc1c[nH]cn1)NC(=O)[C@@H](NC(=O)[C@H](Cc1ccc(O)cc1)NC(=O)[C@@H](NC(=O)[C@H](CCCNC(=N)N)NC(=O)CNC)C(C)C)[C@@H](C)CC)C(=O)O` [SI, [Sar^1, IIe^8]-AngII], the “time at which BRET signal plateaued” value in assay [2] was 10 min. In addition, the “time to maximal AT1R internalization into endosomes” value in assay [3] (100 nM SI or 1 μM DVG) was determined as 20 min. The “less efficacious than AngII at promoting AT1R concentration in early endosomes” value in assay [3] (100 nM SI or 1 μM DVG vs 100 nM AngII) worked out at 20%. Moreover, the “receptor accumulation in endosomes, compared to AngII” value in assay [3] (40 min) was “promoted less receptor accumulation in endosomes”. Further, in assay [4] (40 min), the “β-arrestin2 trafficking to endosomes with receptors, compared to AngII” value is reported as “weakly promoted”. In addition, the “impact of Gq inhibition” value in assay [1] was “reduced efficacy and a rightward-shifted potency”.

Regarding `CO/C1=C\C(C)=C\[C@@H](C)[C@@H](O)[C@@H](C)C/C(C)=C/C=C/[C@H](OC)[C@@H]([C@@H](C)[C@@H](O)[C@H](C)[C@@]2(O)C[C@@H](O)[C@H](C)[C@@H](C(C)C)O2)OC1=O` [bafilomycin A], in assay [3] (AngII 40 min), the “effect on agonist-mediated accumulation of AT1R in endosomes” value is given as “increased”.

In the case of `CC[C@H](C)[C@H](NC(=O)[C@H](Cc1ccc(O)cc1)NC(=O)[C@@H](NC(=O)[C@H](CCCNC(=N)N)NC(=O)CNC)C(C)C)C(=O)N[C@@H](Cc1cnc[nH]1)C(=O)N1CCC[C@H]1C(=O)N[C@H](C)C(=O)O` [TRV, [Sar1-D-Ala8] AngII], the “impact of Gq inhibition” value in assay [1] is reported as “did not affect”.

Turning to `OC[C@H]1O[C@@](CO)(O[C@H]2O[C@H](CO)[C@@H](O)[C@H](O)[C@H]2O)[C@@H](O)[C@@H]1O` [sucrose], the “effect on AngII-induced BRET response at the plasma membrane” value in assay [5] was “efficiently blocked”. In assay [3] (0.45 M sucrose 20 min), the “effect on AngII-induced BRET response in the endosomes (receptor)” value is listed as “efficiently blocked”. The “effect on AngII-induced BRET response in the endosomes (β-arrestin2)” value in assay [4] (0.45 M sucrose 20 min) is given as “efficiently blocked”.

Regarding `CCOc1ccc2c(c1)C1(CCC(OCCN3CCOCC3)CC1)C(=O)N2S(=O)(=O)c1ccc(C(=O)NC(C)(C)C)cc1OC` (centres unmarked) [SR121463], in assay [6], the “PC-mediated rescue of cell surface expression” value is given as “PC-mediated rescue”.

As for [Sar1-Val5-D-Phe8] AngII [SVdF], the “impact of Gq inhibition” value in assay [1] was “reduced efficacy and a rightward-shifted potency”.
